Experimental data published in patent US20170226072A1, “1,4-Disubstituted Piperidines, 1,4-Disubstituted Piperazines, 1,4-Disubstituted Diazepines, and 1,3-Disubstituted Pyrrolidine Compounds” (University of Kentucky Research Foundation, priority 2013, published 2017).

Assays:
[1] = target: T1, dopamine transporter (DAT) (Rattus norvegicus, UniProt P23977); assay: [3H]DA uptake assay, striatal synaptosomal preparation; assay type: biochemical; settings: rat striatal synaptosomes; read-out: DAT [3H]DA Uptake Inhibition Mean ± SEM (Ki)
T1 construct: from tissue; host or cells: rat striatum, synaptosomes
T1 sequence (P23977 whole entry): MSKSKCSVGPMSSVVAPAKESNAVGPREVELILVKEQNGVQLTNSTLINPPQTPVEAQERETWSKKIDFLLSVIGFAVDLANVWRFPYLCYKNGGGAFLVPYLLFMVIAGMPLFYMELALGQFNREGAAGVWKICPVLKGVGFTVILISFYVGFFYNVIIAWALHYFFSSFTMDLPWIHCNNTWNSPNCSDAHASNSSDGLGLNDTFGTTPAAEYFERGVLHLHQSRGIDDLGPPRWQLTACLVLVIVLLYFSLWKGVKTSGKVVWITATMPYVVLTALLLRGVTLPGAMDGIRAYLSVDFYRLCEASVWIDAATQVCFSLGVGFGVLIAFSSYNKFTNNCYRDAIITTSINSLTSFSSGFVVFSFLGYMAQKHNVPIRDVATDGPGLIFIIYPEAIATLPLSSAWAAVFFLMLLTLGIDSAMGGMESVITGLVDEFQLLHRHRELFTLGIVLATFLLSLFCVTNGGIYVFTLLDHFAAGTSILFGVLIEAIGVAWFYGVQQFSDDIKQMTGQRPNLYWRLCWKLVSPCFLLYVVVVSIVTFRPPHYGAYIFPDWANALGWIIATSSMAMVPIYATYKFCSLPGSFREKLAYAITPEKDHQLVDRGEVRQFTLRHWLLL
Description: (§1) [^3H]DA and [^3H]5-HT Uptake Assay, Synaptosomal Preparation
(§2) [^3H]DA and [^3H]5-HT uptake into striatal synaptosomes was determined to evaluate compound inhibition of the dopamine transporter (DAT) and the serotonin transporter (SERT), respectively. […] Homogenates were centrifuged at 2000 g for 10 min at 4° C., and resulting supernatants were centrifuged at 20,000 g for 17 min at 4° C. […] Assays were performed in duplicate in a total volume of 500 (for DAT assays) or 250 μL (for SERT assays). […] Reactions were terminated by addition of 3 mL of ice-cold assay buffer and subsequent filtration and radioactivity retained by the filters was determined by liquid scintillation spectrometry (Tri-Carb 2100TR liquid scintillation analyzer; PerkinElmer Life and Analytical Sciences, Boston, Mass.).

[2] = target: T2, hERG channel (Homo sapiens, UniProt Q12809); assay: [3H]Dofetilide binding assay, HEK-293 cell membrane preparation; settings: HEK-293 cell membranes expressing hERG, 5 nM [3H]dofetilide; read-out: hERG [3H]Dofetilide Binding Inhibition Mean ± SEM (IC50)
T2 construct: expressed in transfected cells
T2 sequence (Q12809 whole entry): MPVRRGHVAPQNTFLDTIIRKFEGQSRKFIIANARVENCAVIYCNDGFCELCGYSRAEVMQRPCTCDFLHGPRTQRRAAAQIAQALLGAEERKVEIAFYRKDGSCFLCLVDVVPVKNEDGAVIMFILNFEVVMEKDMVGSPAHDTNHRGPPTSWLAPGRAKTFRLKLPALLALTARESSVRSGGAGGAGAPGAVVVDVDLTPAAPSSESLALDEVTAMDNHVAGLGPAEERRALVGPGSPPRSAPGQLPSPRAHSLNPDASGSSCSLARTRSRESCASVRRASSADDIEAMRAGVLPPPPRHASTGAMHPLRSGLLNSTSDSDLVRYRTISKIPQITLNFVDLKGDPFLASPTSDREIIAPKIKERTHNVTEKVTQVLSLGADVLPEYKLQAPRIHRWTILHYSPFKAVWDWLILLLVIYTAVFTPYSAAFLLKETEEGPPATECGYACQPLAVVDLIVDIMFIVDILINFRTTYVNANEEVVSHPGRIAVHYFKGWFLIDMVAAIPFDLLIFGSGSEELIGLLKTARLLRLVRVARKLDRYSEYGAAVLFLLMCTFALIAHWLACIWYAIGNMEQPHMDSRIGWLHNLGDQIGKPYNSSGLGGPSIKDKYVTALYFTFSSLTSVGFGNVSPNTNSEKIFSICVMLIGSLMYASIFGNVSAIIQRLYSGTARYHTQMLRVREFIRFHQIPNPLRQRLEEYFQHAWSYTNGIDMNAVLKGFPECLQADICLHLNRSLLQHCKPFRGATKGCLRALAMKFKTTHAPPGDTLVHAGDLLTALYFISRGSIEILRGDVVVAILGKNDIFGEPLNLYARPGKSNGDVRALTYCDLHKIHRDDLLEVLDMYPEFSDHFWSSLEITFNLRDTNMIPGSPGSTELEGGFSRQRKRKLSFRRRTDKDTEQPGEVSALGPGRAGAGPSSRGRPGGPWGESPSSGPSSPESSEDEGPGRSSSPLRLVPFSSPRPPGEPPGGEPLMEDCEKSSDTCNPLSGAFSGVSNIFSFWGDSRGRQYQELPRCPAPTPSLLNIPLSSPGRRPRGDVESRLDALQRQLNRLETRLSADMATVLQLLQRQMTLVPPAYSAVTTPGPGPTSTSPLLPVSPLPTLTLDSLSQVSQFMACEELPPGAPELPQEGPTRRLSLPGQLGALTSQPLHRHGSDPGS
Description: [^3H]Dofetilide Binding Assay, HEK-293 Cell Membrane Preparation
[^3H]Dofetilide binding assays were conducted using commercially available HEK-293 cell membranes which stably express the hERG channel. Membranes were suspended in assay buffer (50 mM Tris, 10 mM KCl, 1 mM MgCl2, pH 7.4) prior to the experiment. Assays were performed in duplicate in a total volume of 250 μL. Aliquots of the HEK-293 cell membrane suspension which contained 5 μg membrane protein were added to tubes containing assay buffer, 5 nM [^3H]dofetilide and a range of concentrations of analog (10 nM-100 μM). Nonspecific binding was determined in the presence of amitriptyline (1 mM). Samples were incubated for 1 hr. at 24° C., followed by rapid filtration. Radioactivity retained by the filters was determined by liquid scintillation spectrometry as described above for the [^3H]DA uptake assay. The affinity for the [^3H]dofetilide binding site on the hERG channel expressed in the HEK-293 cellular membrane was determined from the analog concentration response curves.

[3] = target: T3, serotonin transporter (SERT) (Rattus norvegicus, UniProt P31652); assay: [3H]5-HT uptake assay, striatal synaptosomal preparation; assay type: biochemical; settings: rat striatal synaptosomes, GBR-12935 (100 nM) in buffer; read-out: SERT [3H]5-HT Uptake Inhibition Mean ± SEM (Ki)
T3 construct: from tissue
T3 sequence (P31652 whole entry): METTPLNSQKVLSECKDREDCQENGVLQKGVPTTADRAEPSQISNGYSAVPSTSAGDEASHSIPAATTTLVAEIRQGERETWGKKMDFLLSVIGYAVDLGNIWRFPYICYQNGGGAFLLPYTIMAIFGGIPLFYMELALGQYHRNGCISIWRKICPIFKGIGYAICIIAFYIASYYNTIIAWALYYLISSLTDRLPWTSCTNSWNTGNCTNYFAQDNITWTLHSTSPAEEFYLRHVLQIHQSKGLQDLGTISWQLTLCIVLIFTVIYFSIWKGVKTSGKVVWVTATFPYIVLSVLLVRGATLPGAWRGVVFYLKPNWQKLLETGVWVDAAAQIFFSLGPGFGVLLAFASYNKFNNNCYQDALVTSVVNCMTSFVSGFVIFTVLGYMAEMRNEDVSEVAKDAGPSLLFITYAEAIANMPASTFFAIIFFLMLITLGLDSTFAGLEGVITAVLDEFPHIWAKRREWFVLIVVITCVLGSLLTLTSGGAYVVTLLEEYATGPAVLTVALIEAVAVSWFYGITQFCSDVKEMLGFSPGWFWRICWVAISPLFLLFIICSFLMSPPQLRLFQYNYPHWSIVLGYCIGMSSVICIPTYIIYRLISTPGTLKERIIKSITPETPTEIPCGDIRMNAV
Description: as §1, §2

[4] = target: T4, VMAT2 (Rattus norvegicus, UniProt Q01827); assay: [3H]Dopamine ([3H]DA) uptake assay, vesicular preparation; assay type: biochemical
T4 construct: conducted using isolated synaptic vesicle preparations; from tissue; host or cells: rat striatum, isolated synaptic vesicles
T4 sequence (Q01827 whole entry): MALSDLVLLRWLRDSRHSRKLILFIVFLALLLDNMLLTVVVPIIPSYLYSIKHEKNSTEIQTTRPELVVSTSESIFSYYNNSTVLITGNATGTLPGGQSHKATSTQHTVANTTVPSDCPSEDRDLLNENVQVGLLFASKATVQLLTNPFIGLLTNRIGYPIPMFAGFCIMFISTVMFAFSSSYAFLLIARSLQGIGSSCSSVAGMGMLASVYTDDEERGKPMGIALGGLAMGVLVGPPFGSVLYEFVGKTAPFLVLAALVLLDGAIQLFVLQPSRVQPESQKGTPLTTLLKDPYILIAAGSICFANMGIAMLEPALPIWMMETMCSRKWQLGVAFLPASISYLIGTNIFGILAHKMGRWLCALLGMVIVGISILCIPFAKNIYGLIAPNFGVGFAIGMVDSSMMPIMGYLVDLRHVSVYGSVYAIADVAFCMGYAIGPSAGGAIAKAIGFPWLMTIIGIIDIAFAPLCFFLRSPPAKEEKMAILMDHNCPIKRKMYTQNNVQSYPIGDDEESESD
Description: [^3H]Dopamine ([^3H]DA) Uptake Assay, Vesicular Preparation
Homogenates were centrifuged (2,000 g for 10 min at 4° C.), and then the supernatants were centrifuged (10,000 g for 30 min at 4° C.). Pellets were resuspended in 2 ml of 0.32 M sucrose solution and subjected to osmotic shock by adding 7 ml of ice-cold MilliQ water to the preparation. After 1 min, osmolarity was restored by adding 900 μl of 0.25 M HEPES buffer and 900 μl of 1.0 M potassium tartrate solution. Samples were centrifuged (20,000 g for 20 min at 4° C.), and the supernatants were centrifuged (55,000 g for 1 hr at 4° C.), followed by addition of 100 μl of 10 mM MgSO4, 100 μl of 0.25 M HEPES and 100 μl of 1.0 M potassium tartrate solution prior to the final centrifugation (100,000 g for 45 min at 4° C.). Final pellets were resuspended in 2.4 ml of assay buffer (25 mM HEPES, 100 mM potassium tartrate, 50 μM EGTA, 100 μM EDTA, 1.7 mM ascorbic acid, 2 mM ATP-Mg^2+, pH 7.4). Aliquots of the vesicular suspension (100 μl) were added to tubes containing assay buffer, various concentrations of compound (0.1 nM-10 mM) and 0.1 μM [^3H]DA in a final volume of 500 and incubated at 37° C. for 8 min. […] Reactions were terminated by filtration, and radioactivity retained by the filters was determined by liquid scintillation spectrometry (Tri-Carb 2100TR liquid scintillation analyzer; PerkinElmer Life and Analytical Sciences, Boston, Mass.).

[5] = target: T4, VMAT2; assay: [3H]Dihydrotetrabenazine ([3H]DTBZ) binding assay, vesicular preparation; settings: rat brain synaptic vesicles, 3 nM [3H]DTBZ; read-out: Inhibition of [3H]DTBZ binding (Ki) VMAT2
Description: [^3H]Dihydrotetrabenazine ([^3H]DTBZ) Binding Assay, Vesicular Preparation
The resulting supernatant (S1) was then centrifuged at 22,000 g for 10 min at 4° C. The synaptosomal pellets (P2) were homogenized in 18 mL of ice-cold Milli-Q water and exposed for 5 min for lysing synaptosomes. Osmolarity was restored by addition of 2 mL of 25 mM HEPES with 100 mM dipotassium tartrate (pH 7.5). Samples were centrifuged at 20,000 g for 20 min at 4° C. to remove lysed synaptosomal membranes. MgSO4 (1 mM) was added to the supernatant (S3), and was centrifuged at 100,000 g for 45 min at 4° C. […] Aliquot parts (100 μL) of suspension of vesicle membrane protein were incubated in assay buffer (25 mM HEPES, 100 mM dipotassium tartrate, 5 mM MgSO4, 0.1 mM EDTA and 0.05 mM EGTA, pH 7.5, at 25° C.) in the presence of 3 nM [^3H]DTBZ and at least 7 concentrations (1 nM-1 mM) of compound for 1 hr at room temperature. Nonspecific binding was determined in the presence of 20 μM tetrabenazine, a standard compound. Assays were performed in duplicate using a 96-well plate format. Reactions were terminated by filtration of samples on a Unifilter-96 GF/B filter plates (presoaked in 0.5% polyethylenimine), using a FilterMate harvester (Packard BioScience Co., Meriden, Conn.).
After washing 5 times with 350 μL of the ice-cold wash buffer (25 mM HEPES, 100 mM dipotassium tartrate, 5 mM MgSO4 and 10 mM NaCl, pH 7.5), filter plates were dried, sealed and each well filled with 40 μL Packard's MicroScint 20 cocktail. Bound [^3H]DTBZ was measured using a Packard TopCount NXT scintillation counter with a Packard Windows NT based operating system.

[6] = tested on: VMAT2 over hERG, DAT and SERT; assay: Lead compound criteria: 30-fold selectivity for VMAT2 over hERG, DAT and SERT; settings: criterion: 30-fold selectivity for VMAT2 over hERG
Description: Accordingly, this test assessed the potential of the tested compounds to produce cardiac arrhythmias via interaction at this off-target site. The criterion for compounds to be considered leads was a 30-fold selectivity for VMAT2 over hERG.

[7] = rat striatal synaptic vesicles, 0.1 μM [3H]DA, read-out: [3H]DA Uptake (Ki) VMAT2
[8] = synaptic vesicle preparations, summary of Table 1, read-out: inhibition of [3H]DA uptake, Ki

Structure (SMILES): COc1cccc(CCN2CCC(CCc3ccccc3)CC2)c1 [Compound 2]
- Ki [1]: 3130 ± 190 nM
- IC50 [2]: 489 ± 84.7 nM
- Ki [3]: 1150 ± 90 nM
- Ki [4, 7]: 22 ± 0.87 nM
- Ki [5]: 265 ± 38 nM

Structure (SMILES): COc1ccccc1CCC1CCN(CCc2ccccc2OC)CC1 [Compound 12, 1,4-bis(2-methoxyphenethyl)piperidine]
- Ki [1]: 3450 ± 450 nM
- IC50 [2]: 1070 ± 90.6 nM
- Ki [3]: 120 ± 10 nM
- Ki [4, 7]: 9.3 ± 0.6 nM
- Ki [4, 8]: 9 to 20 nM
- Ki [5]: 190 ± 8.8 nM
- lead compound status (30-fold selectivity for VMAT2 over hERG, DAT and SERT) [6]: successfully met the criteria for lead compound status

Structure (SMILES): COc1ccccc1CCC1CCN(CCc2ccccc2)CC1 [Compound 13]
- Ki [1]: 3560 ± 1210 nM
- IC50 [2]: 1650 ± 670 nM
- Ki [3]: 750 ± 180 nM
- Ki [4, 7]: 22 ± 2.8 nM
- Ki [5]: 690 ± 50 nM
- lead compound status (30-fold selectivity for VMAT2 over hERG, DAT and SERT) [6]: successfully met the criteria for lead compound status

Structure (SMILES): COc1ccc(CCC2CCN(CCc3ccccc3Cl)CC2)cc1 [Compound 24]
- Ki [1]: 5160 ± 1250 nM
- IC50 [2]: 2090 ± 391 nM
- Ki [3]: 4150 ± 1450 nM
- Ki [4, 7]: 40 ± 7 nM
- Ki [5]: 230 ± 20 nM
- lead compound status (30-fold selectivity for VMAT2 over hERG, DAT and SERT) [6]: successfully met the criteria for lead compound status

Structure (SMILES): COc1ccccc1CCC1CCN(CCc2ccc(F)cc2)CC1 [Compound 29, 1-(4-fluorophenethyl)-4-(2-methoxyphenethyl)piperidine]
- Ki [1]: 4130 ± 440 nM
- IC50 [2]: 347 ± 18.8 nM
- Ki [3]: 580 ± 70 nM
- Ki [4, 7]: 13 ± 2.1 nM
- Ki [4, 8]: 9 to 20 nM
- Ki [5]: 400 ± 97 nM

Structure (SMILES): c1ccc(CCN2CCN(CCc3ccccc3)CC2)cc1 [Compound 54, 1,4-diphenethylpiperazine]
- Ki [1]: 13600 ± 2690 nM
- IC50 [2]: 3390 ± 1940 nM
- Ki [3]: 11400 ± 4140 nM
- Ki [4, 7]: 110 ± 12 nM
- Ki [5]: 3050 ± 640 nM

Structure (SMILES): COc1ccccc1CCN1CCN(CCc2ccccc2OC)CC1 [Compound 55]
- Ki [1]: 14400 ± 456 nM
- IC50 [2]: 1020 ± 180 nM
- Ki [3]: 1580 ± 415 nM

Structure (SMILES): COc1cccc(CCN2CCN(CCc3cccc(OC)c3)CC2)c1 [Compound 56]
- Ki [1]: 7900 ± 2890 nM
- IC50 [2]: 1490 ± 204 nM
- Ki [3]: 3620 ± 1300 nM

Structure (SMILES): Clc1ccccc1CCN1CCN(CCc2ccccc2Cl)CC1 [Compound 58]
- Ki [1]: 6310 ± 1010 nM
- IC50 [2]: 1080 ± 175 nM
- Ki [3]: 3340 ± 1530 nM

Structure (SMILES): Fc1ccc(CCN2CCN(CCc3ccc(F)cc3)CC2)cc1 [Compound 59]
- Ki [1]: 6580 ± 1410 nM
- IC50 [2]: 362 ± 15.5 nM
- Ki [3]: 4950 ± 900 nM
- Ki [4, 7]: 58 ± 12 nM
- Ki [5]: 3710 ± 480 nM

Structure (SMILES): COc1ccccc1CCN1CCN(CCc2ccccc2)CC1 [Compound 60]
- Ki [1]: 12800 ± 4460 nM
- IC50 [2]: 3190 ± 327 nM
- Ki [3]: 2580 ± 415 nM

Structure (SMILES): COc1cccc(CCN2CCN(CCc3ccccc3)CC2)c1 [Compound 61]
- Ki [1]: 17200 ± 4520 nM
- IC50 [2]: 4230 ± 860 nM
- Ki [3]: 6920 ± 1350 nM
- Ki [4, 7]: 98 ± 16 nM
- Ki [5]: 1300 ± 330 nM
- lead compound status (30-fold selectivity for VMAT2 over hERG, DAT and SERT) [6]: successfully met the criteria for lead compound status

Structure (SMILES): COc1ccc(CCN2CCN(CCc3ccccc3)CC2)cc1 [Compound 62]
- Ki [1]: 11600 ± 3080 nM
- IC50 [2]: 9190 ± 375 nM
- Ki [3]: 3720 ± 20 nM
- Ki [4, 7]: 100 ± 11 nM
- Ki [5]: 4630 ± 1310 nM
- lead compound status (30-fold selectivity for VMAT2 over hERG, DAT and SERT) [6]: successfully met the criteria for lead compound status

Structure (SMILES): Fc1ccc(CCN2CCN(CCc3ccccc3)CC2)cc1 [Compound 64]
- Ki [1]: 8040 ± 2570 nM
- IC50 [2]: 2290 ± 475 nM
- Ki [3]: 4460 ± 727 nM
- Ki [4, 7]: 88 ± 6.9 nM
- Ki [5]: 3860 ± 1010 nM
